According to patent US11084818B2 (HEPO PHARMACEUTICAL CO., LTD., priority 2016, dated 2021):

Key:
hTLR7 = target: T1, hTLR7 (Homo sapiens, UniProt Q9NYK1); experiment: Activation activity test of hTLR7 (HEK-Blue hTLR7 cells, QUANTI-Blue OD650); type: cell-based; conditions: 24 hours incubation, read-out: TLR7 (EC50)
T1 construct: host or cells: HEK-Blue hTLR7 (HEK293-derived reporter line)
T1 sequence (Q9NYK1 27-1049): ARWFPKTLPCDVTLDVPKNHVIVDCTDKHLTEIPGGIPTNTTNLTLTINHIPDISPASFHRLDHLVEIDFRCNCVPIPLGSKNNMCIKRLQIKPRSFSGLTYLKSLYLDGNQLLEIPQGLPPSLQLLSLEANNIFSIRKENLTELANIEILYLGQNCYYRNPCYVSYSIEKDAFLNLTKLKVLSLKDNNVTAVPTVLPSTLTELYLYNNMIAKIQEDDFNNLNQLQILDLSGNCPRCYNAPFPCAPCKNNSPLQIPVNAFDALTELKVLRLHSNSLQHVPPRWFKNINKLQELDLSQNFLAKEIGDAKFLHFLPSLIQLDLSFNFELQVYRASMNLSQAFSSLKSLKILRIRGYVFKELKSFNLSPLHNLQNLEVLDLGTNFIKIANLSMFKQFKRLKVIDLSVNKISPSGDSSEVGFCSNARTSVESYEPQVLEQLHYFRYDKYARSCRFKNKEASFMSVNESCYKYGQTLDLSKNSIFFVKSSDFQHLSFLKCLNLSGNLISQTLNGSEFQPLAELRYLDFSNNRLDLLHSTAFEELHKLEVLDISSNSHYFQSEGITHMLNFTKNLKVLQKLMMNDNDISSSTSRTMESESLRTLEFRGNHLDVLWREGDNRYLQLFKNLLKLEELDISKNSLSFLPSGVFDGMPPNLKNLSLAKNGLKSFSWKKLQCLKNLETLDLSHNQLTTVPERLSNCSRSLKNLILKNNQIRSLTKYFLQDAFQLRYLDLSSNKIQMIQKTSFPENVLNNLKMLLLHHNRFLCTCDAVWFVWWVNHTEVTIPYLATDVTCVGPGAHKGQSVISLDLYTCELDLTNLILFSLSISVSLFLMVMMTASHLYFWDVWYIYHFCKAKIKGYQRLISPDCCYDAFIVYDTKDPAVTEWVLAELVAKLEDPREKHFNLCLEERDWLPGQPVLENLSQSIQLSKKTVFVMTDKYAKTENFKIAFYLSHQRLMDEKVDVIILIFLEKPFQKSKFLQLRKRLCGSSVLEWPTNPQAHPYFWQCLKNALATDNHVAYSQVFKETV
Description: (§1) Effect Example 1: Activation Activity Test of hTLR7 and hTLR8
(§2) Cell lines: HEK-Blue™ hTLR7 and HEK-Blue™ hTLR8 (InvivoGen Co.)
(§3) Primary reagents: QUANTI-Blue™ (InvivoGen) and ATPlite 1 Step (PerkinElmer)
(§4) Primary instruments: Automatic Liquid Handling Workstation (Labcyte, Model: Echo), Cell Counter (Countstar, IC1000) and Multifunctional Enzyme Marker (Molecular Device, Flexstation III).
(§5) 2.1 The tested compounds were formulated into a 60 mM concentrated stock solution in DMSO and stored in a nitrogen cabinet.
(§6) 2.3 The T150 cultured cells were taken out from the CO2 incubator and the cell culture supernatant was discarded. The cells were washed with PBS once, followed by addition of about 10 mL of the culture solution. The cells were dissociated by patting the cell culture flask, and gently blown to even by a pipette.
(§7) The cells were counted, and the cell suspension was adjusted to 200,000 cells/mL by the culture solution. Thereafter, 200 μL of diluted cells was added to each well in a 96-well plate containing the compound (40,000 cells/well).
(§8) 2.4 The compounds and cells were incubated in a 5% CO2 incubator at 37° C. for 24 hours.
(§9) 2.5 Compound activity assay: 20 μl of the cell supernatant of each well after induction was added to a cell culture plate containing 180 μL of reagent QUANTI-Blue™, and incubated at 37° C. for 1.5 hours. Thereafter, the optical density absorption (OD650) of each well at 650 nm was measured using a Multifunctional Enzyme Marker: Flexstation III.
(§10) 2.6 Compound Activity: OD650 values were analyzed using GraphPad Prism software and the dose-response curves for the compound were fitted to calculate the EC50 values of the compound.

hTLR8 = target: T2, hTLR8 (Homo sapiens, UniProt Q9NR97); experiment: Activation activity test of hTLR8 (HEK-Blue hTLR8 cells, QUANTI-Blue OD650); type: cell-based; conditions: HEK-Blue hTLR8 cells, 24 hours incubation; read-out: TLR8 (EC50)
T2 construct: host or cells: HEK-Blue hTLR8 (HEK293-derived reporter line)
T2 sequence (Q9NR97 27-1041): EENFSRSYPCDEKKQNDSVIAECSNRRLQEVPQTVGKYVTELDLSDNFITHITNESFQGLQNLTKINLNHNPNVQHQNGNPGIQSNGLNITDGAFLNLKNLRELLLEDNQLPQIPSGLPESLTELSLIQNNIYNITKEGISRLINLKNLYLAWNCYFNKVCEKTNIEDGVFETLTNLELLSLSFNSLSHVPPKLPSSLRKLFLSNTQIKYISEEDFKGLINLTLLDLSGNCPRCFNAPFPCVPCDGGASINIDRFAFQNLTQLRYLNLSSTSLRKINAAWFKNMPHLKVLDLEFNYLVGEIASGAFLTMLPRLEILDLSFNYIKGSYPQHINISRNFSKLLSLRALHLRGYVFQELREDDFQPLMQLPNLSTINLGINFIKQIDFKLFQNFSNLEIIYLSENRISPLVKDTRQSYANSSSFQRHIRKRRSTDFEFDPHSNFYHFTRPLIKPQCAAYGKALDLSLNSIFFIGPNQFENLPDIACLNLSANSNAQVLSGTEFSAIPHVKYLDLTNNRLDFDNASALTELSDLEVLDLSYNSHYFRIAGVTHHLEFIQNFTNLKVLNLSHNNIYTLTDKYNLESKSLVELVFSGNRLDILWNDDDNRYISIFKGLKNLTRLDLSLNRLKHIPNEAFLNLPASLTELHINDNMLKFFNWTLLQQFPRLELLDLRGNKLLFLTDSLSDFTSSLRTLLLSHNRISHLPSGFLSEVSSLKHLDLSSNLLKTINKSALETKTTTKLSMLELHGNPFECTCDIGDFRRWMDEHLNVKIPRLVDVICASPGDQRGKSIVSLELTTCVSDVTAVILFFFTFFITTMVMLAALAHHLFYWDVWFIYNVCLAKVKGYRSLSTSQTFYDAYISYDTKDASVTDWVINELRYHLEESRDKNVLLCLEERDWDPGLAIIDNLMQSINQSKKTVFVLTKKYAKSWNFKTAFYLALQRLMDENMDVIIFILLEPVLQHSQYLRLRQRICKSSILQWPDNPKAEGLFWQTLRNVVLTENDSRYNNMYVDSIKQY
Description: as §1, §2, §3, §4, §5, §6, §7, §8, §9, §10

| Compound | EC50 (hTLR7) [µM] | EC50 (hTLR8) [µM] |
| --- | --- | --- |
| CCN(CC)Cc1ccc(Cn2c(=O)[nH]c3cnc(OCCOC)nc32)cc1 [Example 10] | 1 to 10 | > 100 |
| CCCn1c(=O)n(Cc2ccc(CN3CCCC3)cc2)c2nc(OCCOC)ncc21 [Example 57, 9-(4-(pyrrolidin-1-ylmethyl)benzyl)-7-propyl-2-(2-methoxyethoxy)-7,9-dihydro-8H-purin-8-one] | > 100 | > 100 |
| COCCOc1ncc2[nH]c(=O)n(Cc3cccc(CN4CC[C@@H](F)C4)c3)c2n1 [Example 22, (R)-9-(3-((3-fluoropyrrolidin-1-yl)methyl)benzyl)-2-(2-methoxyethoxy)-7,9-dihydro-8H-purin-8-one] | 10 to 100 | > 100 |
| COCCOc1ncc2[nH]c(=O)n(Cc3cccc(CN4CCCC4)c3)c2n1 [Example 18] | 1 to 10 | > 100 |
| COCCOc1ncc2[nH]c(=O)n(Cc3ccc(CN4CCC[C@@H]4C(=O)OC)cc3)c2n1 [Example 7, methyl (4-((2-(2-methoxyethoxy)-8-oxo-7,8-dihydro-9H-purin-9-yl)methyl)benzyl)-D-pyrrolidine-2-carboxylate] | 10 to 100 | > 100 |
| CCCCS(=O)(=O)c1ncc2[nH]c(=O)n(Cc3cccc(CN4CCCC4)c3)c2n1 [Example 35, 2-butylsulfonyl-9-(3-(pyrrolidin-1-ylmethyl)benzyl)-7,9-dihydro-8H-purin-8-one] | > 100 | > 100 |
| COCCOc1ncc2[nH]c(=O)n(Cc3cccc(CN4CCN(C)CC4)c3)c2n1 [Example 25, 2-(2-methoxyethoxy)-9-(3-((4-methylpiperazin-1-yl)methyl)benzyl)-7,9-dihydro-8H-purin-8-one] | 10 to 100 | > 100 |
| COCCOc1ncc2[nH]c(=O)n(Cc3cccc(C(C)N4CCCC4)c3)c2n1 (stereo not drawn) [Example 26, 2-(2-methoxyethoxy)-9-(3-(1-(pyrrolidin-1-yl)ethyl)benzyl)-7,9-dihydro-8H-purin-8-one] | 10 to 100 | > 100 |
| O=c1[nH]c2cnc(OCCOCC3CC3)nc2n1Cc1ccc(CN2CCCC2)cc1 [Example 65, 9-(4-(pyrrolidin-1-ylmethyl)benzyl)-2-(2-(cyclopropylmethoxy)ethoxy)-7,9-dihydro-8H-purin-8-one] | 1 to 10 | > 100 |
| COCCOc1ncc2[nH]c(=O)n(Cc3ccc(CN4C5CCC4CC5)cc3)c2n1 [Example 53, 9-(4-((7-azabicyclo[2.2.1]heptan-7-yl)methyl)benzyl)-2-(2-methoxyethoxy)-7,9-dihydro-8H-purin-8-one] | 1 to 10 | > 100 |

Next, values leading:

| EC50 (hTLR7) [µM] | EC50 (hTLR8) [µM] | Compound |
| --- | --- | --- |
| > 100 | > 100 | COCCOc1ncc2[nH]c(=O)n(CCc3ccc(CN4CCCC4)cc3)c2n1 [Example 67, 9-(4-(pyrrolidin-1-ylmethyl)phenethyl)-2-(2-methoxyethoxy)-7,9-dihydro-8H-purin-8-one] |
| 10 to 100 | > 100 | COCCOc1nc(F)c2[nH]c(=O)n(Cc3ccc(CN4CCCC4)cc3)c2n1 [Example 70, 6-fluoro-2-(2-methoxyethoxy)-9-(4-(pyrrolidin-1-ylmethyl)benzyl)-7,9-dihydro-8H-purin-8-one] |
| > 100 | > 100 | COCCOc1ccc2[nH]c(=O)n(Cc3ccc(CN4CCCC4)cc3)c2n1 [Example 40, 5-(2-methoxyethoxy)-3-(4-(pyrrolidin-1-ylmethyl)benzyl)-1,3-dihydro-2H-imidazole[4,5-b]pyridin-2-one] |
| 0.001 to 1 | > 100 | O=c1[nH]c2cnc(OCCOC(F)(F)F)nc2n1Cc1ccc(CN2CCCC2)cc1 [Example 43] |
| > 100 | > 100 | COCCOc1ncc2[nH]c(=O)n(Cc3cccc(CN4CCC[C@H]4C(=O)OC)c3)c2n1 [Example 24, methyl (3-((2-(2-methoxyethoxy)-8-oxo-7,8-dihydro-9H-purin-9-yl)methyl)benzyl)-L-pyrrolidine-2-carboxylate] |
| 10 to 100 | > 100 | O=c1[nH]c2cnc(OCCO)nc2n1Cc1ccc(CN2CCCC2)cc1 [Example 38, 2-(2-hydroxyethoxy)-9-(4-(pyrrolidin-1-ylmethyl)benzyl)-7,9-dihydro-8H-purin-8-one] |
| 0.001 to 1 | > 100 | COCCOc1ncc2[nH]c(=O)n(Cc3ccc(C(C)N4CCCC4)cc3)c2n1 (stereo not drawn) [Example 14, 2-(2-methoxyethoxy)-9-(4-(1-(pyrrolidin-1-yl)ethyl)benzyl)-7,9-dihydro-8H-purin-8-one] |
| > 100 | > 100 | O=c1[nH]c2cnc(OCC3CCOCC3)nc2n1Cc1cccc(CN2CCCC2)c1 [Example 28, 9-(3-(pyrrolidin-1-ylmethyl)benzyl)-2-((tetrahydro-2H-pyran-4-yl)methoxy)-7,9-dihydro-8H-purin-8-one] |
| 10 to 100 | > 100 | COCCOc1ncc2nc(N)n(Cc3ccc(CN4CCCC4)cc3)c2n1 [Example 61, 2-(2-methoxyethoxy)-9-(4-(pyrrolidin-1-ylmethyl)benzyl)-7,9-dihydro-8H-purin-8-amine] |
| 10 to 100 | > 100 | COCCOc1ncc2[nH]c(=O)n(Cc3cccc(CN4CCC[C@@H]4C(=O)OC)c3)c2n1 [Example 23, methyl (3-((2-(2-methoxyethoxy)-8-oxo-7,8-dihydro-9H-purin-9-yl)methyl)benzyl)-D-pyrrolidine-2-carboxylate] |
| 0.001 to 1 | > 100 | O=c1[nH]c2cnc(OCCCOC(F)(F)F)nc2n1Cc1ccc(CN2CCCC2)cc1 [Example 50, 9-(4-(pyrrolidin-1-ylmethyl)benzyl)-2-(3-(trifluoromethoxy)propoxy)-7,9-dihydro-8H-purin-8-one] |
